Like-named read-outs stand apart in the source and are kept apart here.
Columns and labels:
[1] = assay type: in vivo, human
Protocol: The medicinal component was administered in a single inhaled dose of 5 mg, 10 mg, 20 mg, or 40 mg to healthy adult male subjects, and the pharmacokinetics of the medicinal component and the compound (III), which is an active metabolite of the medicinal component, were evaluated.
(§1) The administration was performed using the composition prepared according to Example 41.

[2] = tested on: influenza A or B virus infection; assay type: in vivo, human; settings: adult patients
[3] = tested on: influenza A or B virus infection; assay type: in vivo, human
[4] = clinical; assay type: in vivo, human; settings: for fe0-144 h [%]: cumulative urinary recovery until 144 hours; for fe0-144 h [%] / Cmax / half-life / AUC(0-inf): geometric mean; for Tmax / Cmax / half-life / AUC(0-inf): male, human, in vivo; for Tmax: inhaled or intranasal, single inhaled dose of medicinal component, plasma, median; for AUC(0-inf): read-out: AUC0-inf [ng/mL]
Protocol: The medicinal component was administered in a single inhaled dose of 80 mg or 120 mg to healthy adult male subjects, and the pharmacokinetics of the medicinal component were evaluated. In addition, the pharmacokinetics of the Compound (III), an active metabolite of the medicinal component, were also determined.
as §1

[5] = tested on: influenza A or B virus infection; test: Test of comparison with oseltamivir phosphate for child patients; assay type: in vivo, human

Structure (SMILES) | time after administration at which plasma concentration was less than the quantification lower limit ([1]; each dose group (5, 10, 20, 40 mg), single inhaled dose) | dose proportionality of pharmacokinetic parameters (Cmax, AUC0-tz, AUC0-inf, Ae0-144h of medicinal component; Cmax, Ae0-144h of compound (III)) ([1]; single inhaled dose 5, 10, 20 or 40 mg) | time after administration at which almost not detected in urine ([1]; urinary excretion, single inhaled dose 5 to 40 mg) | upper limit of the 95% confidence interval for the difference between the median values ([2]; every dose group (20 mg, 40 mg), non-inferiority margin 18 hours) | Difference (95% confidence interval, hours) in median value from the oseltamivir phosphate group ([3]; human, in vivo) | duration of influenza illness compared with the oseltamivir phosphate group ([3]; human, in vivo) | fe0-144 h [%] ([4]; 80 mg group) | fe0-144 h [%] ([4]; 120 mg group) | Tmax ([4]; 80 mg group) | Tmax ([4]; 120 mg group) | Cmax ([4]; 80 mg group) | half-life ([4]; 80 mg group) | AUC(0-inf) ([4]; 80 mg group) | Cmax ([4]; 120 mg group) | half-life ([4]; 120 mg group) | AUC(0-inf) ([4]; 120 mg group) | duration of the illness compared with the oseltamivir phosphate group ([5]; child patients, each of the 20 mg group and the 40 mg group) | Median value (hours) of the duration of influenza illness ([2]; 75 mg twice daily for 5 days) | Median value (hours) of the duration of influenza illness ([3]; 75 mg twice daily for 5 days) | Median value (hours) of the duration of influenza illness ([5]; child patients (9 or less years old), 2 mg/kg twice daily for 5 days)
CCCCCCCC(=O)OC[C@@H](O)[C@@H](OC)[C@@H]1OC(C(=O)O)=C[C@H](NC(=N)N)[C@H]1NC(C)=O [Medicinal component, (2R,3R,4S)-3-acetamido-4-guanidino-2-[(1R,2R)-2-hydroxy-1-methoxy-3-(octanoyloxy)propyl]-3,4-dihydro-2H-pyran-6-carboxylic acid] | ≥ 24 h | Dose proportionality was observed | ≥ 24 h | less than 18 hours | −1.4(−27.6 to 7.3) hours | almost equal | 3.5% | 2.7% | 0.5 h | 0.5 h | 335 ng/mL | 5.66 h | 1270 ng·h/mL | 412 ng/mL | 2.87 h | 1560 ng·h/mL | shorter | – | – | –
CCOC(=O)C1=C[C@@H](OC(CC)CC)[C@H](NC(C)=O)[C@@H](N)C1 [Oseltamivir phosphate, oseltamivir phosphate, reference compound] | – | – | – | – | – | – | – | – | – | – | – | – | – | – | – | – | – | 73.6 h | 87.4 h | 87.3 h
